Experimental findings from US20250051347A1, “BIFUNCTIONAL CHIMERIC HETEROCYCLIC COMPOUND AND USE THEREOF AS ANDROGEN RECEPTOR DEGRADER” (Hinova Pharmaceuticals, Inc., priority 2021, published 2025) are described below.

The structures appear in SMILES notation.

One experiment has as its target T1, androgen receptor (AR) splicing variant AR-v7 (Homo sapiens, UniProt P10275).
T1 construct: The degradation activity of compounds on AR-v7 in 22RV1 cells; host or cells: 22RV1 cells
T1 sequence (P10275 1-644 isoform P10275-3): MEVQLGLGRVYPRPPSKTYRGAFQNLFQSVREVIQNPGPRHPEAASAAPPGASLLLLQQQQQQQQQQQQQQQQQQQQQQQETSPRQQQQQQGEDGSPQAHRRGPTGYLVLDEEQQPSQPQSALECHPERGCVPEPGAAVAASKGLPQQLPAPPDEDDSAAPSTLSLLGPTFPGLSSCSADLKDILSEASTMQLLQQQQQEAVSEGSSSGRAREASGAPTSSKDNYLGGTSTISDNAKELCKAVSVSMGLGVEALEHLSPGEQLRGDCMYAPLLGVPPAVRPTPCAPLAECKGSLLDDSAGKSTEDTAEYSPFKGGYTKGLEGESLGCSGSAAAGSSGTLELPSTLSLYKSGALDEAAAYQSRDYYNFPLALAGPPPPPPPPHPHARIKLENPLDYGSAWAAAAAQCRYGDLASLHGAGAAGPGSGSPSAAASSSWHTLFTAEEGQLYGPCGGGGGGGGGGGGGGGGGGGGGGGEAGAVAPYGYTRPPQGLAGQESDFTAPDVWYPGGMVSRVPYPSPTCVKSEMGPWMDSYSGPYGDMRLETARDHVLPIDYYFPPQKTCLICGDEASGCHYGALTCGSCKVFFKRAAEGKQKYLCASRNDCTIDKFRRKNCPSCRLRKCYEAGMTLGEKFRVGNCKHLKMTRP
The experiment in a line: Degradation activity on androgen receptor splicing variant AR-v7 in 22RV1 cells (ELISA). The class given is cell-based. Conditions: AR-v7 degradation in 22RV1 cells, 48 h, class symbols.
For the compound `Cc1nc(-c2ccc(Oc3ccc(C(C)(C)c4ccc(O[C@H]5C[C@@H](Nc6ccc7c(c6)C(=O)N(C6CCC(=O)NC6=O)C7=O)C5)cc4)cc3)nn2)no1` (stereo partly drawn) [Example 337], the 50% degradation concentration (DC50) was 11 to 100 nM. In turn, `CC(O)c1ncc(Oc2ccc(C(C)(C)c3ccc(OC[C@@H]4CCN4c4ccc5c(c4)C(=O)N(C4CCC(=O)NC4=O)C5=O)cc3)cc2)cn1` (stereo partly drawn) [Example 340] registered a DC50 of 11 to 100 nM. Take `CC(=O)c1ncc(Oc2ccc(C(C)(C)c3ccc(OC[C@@H]4CCN4c4ccc5c(c4)C(=O)N(C4CCC(=O)NC4=O)C5=O)cc3)cc2)cn1` (stereo partly drawn) [Example 341, 5-((S)-2-((4-(2-(4-((2-acetylpyrimidin-5-yl)oxy)phenyl)propan-2-yl)phenoxy)methyl)azetidin-1-yl)-2-(2,6-dioxopiperidin-3-yl)isoindolin-1,3-dione]: the 50% degradation concentration (DC50) fell in the range of 11 to 100 nM. In turn, `CC(=O)c1nccc(COc2ccc(C(C)(C)c3ccc(OCCCNc4cccc5c4C(=O)N(C4CCC(=O)NC4=O)C5=O)cc3)cc2)n1` (stereo not drawn) [Example 344, 4-((3-(4-(2-(4-((2-acetylpyrimidin-4-yl)methoxy)phenyl)isopropan-2-yl)phenoxy)propyl)amino)-2-(2,6-dioxopiperidin-3-yl)isoindolin-1,3-dione] returned a half-maximal degradation concentration (DC50) of 1000 to 5000 nM. As to `CC(O)c1nccc(COc2ccc(C(C)(C)c3ccc(OCCCNc4cccc5c4C(=O)N(C4CCC(=O)NC4=O)C5=O)cc3)cc2)n1` (stereo not drawn) [Example 346, 2-(2,6-dioxopiperidin-3-yl)-4-((3-(4-(2-(4-((2-(1-hydroxylethyl)pyrimidin-4-yl)methoxy)phenyl)isopropan-2-yl)phenoxy)propyl)amino)isoindolin-1,3-dione], the DC50 was 1000 to 5000 nM. Compound `CC(=O)c1cc(COc2ccc(C(C)(C)c3ccc(OCCCCCCCCOCCCCNc4ccc5c(c4)C(=O)N(C4CCC(=O)NC4=O)C5=O)cc3)cc2)ccn1` (stereo not drawn) [Example 347, 5-((4-((8-(4-(2-(4-((2-acetylpyridin-4-yl)methoxy)phenyl)isopropan-2-yl)phenoxy)octyl)oxy)butyl)amino)-2-(2,6-dioxopiperidin-3-yl)isoindolin-1,3-dione] registered a DC50 of 1000 to 5000 nM. On the same count and under the same terms, the value for `CC(=O)c1cc(COc2ccc(C(C)(C)c3ccc(OCCCCCCCCOCCCCNc4cccc5c4C(=O)N(C4CCC(=O)NC4=O)C5=O)cc3)cc2)ccn1` (stereo not drawn) [Example 348, 4-((4-((8-(4-(2-(4-((2-acetylpyridin-4-yl)methoxy)phenyl)isopropan-2-yl)phenoxy)octyl)oxy)butyl)amino)-2-(2,6-dioxopiperidin-3-yl)isoindolin-1,3-dione] was 1000 to 5000 nM; that for `NC(=O)c1noc(COc2ccc(C3(c4ccc(OCCCNc5ccc6c(c5)C(=O)N(C5CCC(=O)NC5=O)C6=O)cc4)CCC3)cc2)n1` (stereo not drawn) [Example 352, 5-((4-(1-(4-(3-((2-(2,6-dioxopiperidin-3-yl)-1,3-dioxoisoindolin-5-yl)amino)propoxy)phenyl)cyclobutyl)phenoxy)methyl)-1,2,4-oxadiazol-3-carbonylamine] was 11 to 100 nM. On the same count and under the same terms, the value for `CC(=O)c1nccc(COc2ccc(C(C)(C)c3ccc(O[C@H]4CC[C@H](Nc5ccc6c(c5)C(=O)N(C5CCC(=O)NC5=O)C6=O)CC4)cc3)cc2)n1` (stereo partly drawn) [Example 353, 5-(((1r,4r)-4-(4-(2-(4-((2-acetylpyrimidin-4-yl)methoxy)phenyl)isopropan-2-yl)phenoxy)cyclohexyl)amino)-2-(2,6-dioxopiperidin-3-yl)isoindolin-1,3-dione] was 1000 to 5000 nM. Still for that read-out and setting: the figure for `CC(O)c1nccc(COc2ccc(C(C)(C)c3ccc(O[C@H]4CC[C@H](Nc5ccc6c(c5)C(=O)N(C5CCC(=O)NC5=O)C6=O)CC4)cc3)cc2)n1` (stereo partly drawn) [Example 354, 2-(2,6-dioxopiperidin-3-yl)-5-(((1r,4r)-4-(4-(2-(4-((2-(1-hydroxylethyl)pyrimidin-4-yl)methoxy)phenyl)isopropan-2-yl)phenoxy)cyclohexyl)amino)isoindolin-1,3-dione] is 1000 to 5000 nM. Regarding `CC(C)(c1ccc(OCc2ccnc(OC3CCOCC3)n2)cc1)c1ccc(O[C@H]2C[C@H](Nc3ccc4c(c3)C(=O)N(C3CCC(=O)NC3=O)C4=O)C2)cc1` (stereo partly drawn) [Example 368, 2-(2,6-dioxopiperidin-3-yl)-5-(((1r,3r)-3-(4-(2-(4-((2-((tetrahydro-2H-pyran-4-yl)oxy)pyrimidin-4-yl)methoxy)phenyl)isopropan-2-yl)phenoxy)cyclobutyl)amino)isoindolin-1,3-dione], the DC50 was in the range of 11 to 100 nM. On the same count and under the same terms, the value for `O=C1CCC(N2C(=O)c3ccc(N[C@H]4C[C@H](Oc5ccc(C6(c7ccc(Oc8ccc(-n9nccn9)nn8)cc7)CC6)cc5)C4)cc3C2=O)C(=O)N1` (stereo partly drawn) [Example 374, 5-(((1r,3r)-3-(4-(1-(4-((6-(2H-1,2,3-triazole-2-yl)pyridazine-3-yl)oxy)phenyl)cyclopropyl)phenoxy)cyclobutyl)amino)-2-(2,6-dioxopiperidin-3-yl)isoindolin-1,3-dione] was 11 to 100 nM; that for `O=C1CCC(N2C(=O)c3ccc(N[C@H]4C[C@H](Oc5ccc(C6(c7ccc(Oc8ccc(-n9ccnn9)nn8)cc7)CC6)cc5)C4)cc3C2=O)C(=O)N1` (stereo partly drawn) [Example 375, 5-(((1r,3r)-3-(4-(1-(4-((6-(1H-1,2,3-triazole-1-yl)pyridazine-3-yl)oxy)phenyl)cyclopropyl)phenoxy)cyclobutyl)amino)-2-(2,6-dioxopiperidin-3-yl)isoindolin-1,3-dione] was 11 to 100 nM; that for `Cc1nc(-c2ccc(Oc3ccc(C4(c5ccc(O[C@H]6C[C@H](Nc7ccc8c(c7)C(=O)N(C7CCC(=O)NC7=O)C8=O)C6)cc5)CC4)cc3)nn2)no1` (stereo partly drawn) [Example 376, 2-(2,6-dioxopiperidin-3-yl)-5-(((1r,3r)-3-(4-(1-(4-((6-(5-methyl-1,2,4-oxadiazol-3-yl)pyridazine-3-yl)oxy)phenyl)cyclopropyl)phenoxy)cyclobutyl)amino)isoindolin-1,3-dione] was 11 to 100 nM.

`CCOC(=O)c1ncc(Oc2ccc(C(C)(C)c3ccc(O[C@H]4C[C@H](Nc5ccc6c(c5)C(=O)N(C5CCC(=O)NC5=O)C6=O)C4)cc3)cc2)cn1` (stereo partly drawn) [Example 381, ethyl 5-(4-(2-(4-((1r,3r)-3-((2-(2,6-dioxopiperidin-3-yl)-1,3-dioxoisoindolin-5-yl)amino)cyclobutyloxy)phenyl)isopropan-2-yl)phenoxy)pyrimidin-2-carboxylate] yielded a DC50 of 11 to 100 nM. `CC(=O)c1nccc(COc2ccc(C(C)(C)c3ccc(OCCCCCCCCCNc4cccc5c4C(=O)N(C4CCC(=O)NC4=O)C5=O)cc3)cc2)n1` (stereo not drawn) [Example 386, 4-((9-(4-(2-(4-((2-acetylpyrimidin-4-yl)methoxy)phenyl)propan-2-yl)phenoxy)nonyl)amino)-2-(2,6-dioxopyridin-3-yl)isoindol-1,3-dione] came in with a half-maximal degradation concentration (DC50) of 1000 to 5000 nM.

Consider `CC(C)(c1ccc(OCCCNc2ccc3c(c2)C(=O)N(C2CCC(=O)NC2=O)C3=O)cc1)c1ccc(OCc2ccnc(-n3cccn3)n2)cc1` (stereo not drawn) [Example 387, 5-((3-(4-(2-(4-((2-(1H-pyrazol-1-yl)pyrimidin-4-yl)methoxy)phenyl)propan-2-yl)phenoxy)propyl)amino)-2-(2,6-dioxopiperidin-3-yl)isoindol-1,3-dione], for which the 50% degradation concentration (DC50) lay within 11 to 100 nM. Same read-out and setting: the value for `CC(C)(c1ccc(OCCCNc2ccc3c(c2)C(=O)N(C2CCC(=O)NC2=O)C3=O)cc1)c1ccc(OCc2nc(C(N)=O)co2)cc1` (stereo not drawn) [Example 388] was 11 to 100 nM; that for `CC(C)(c1ccc(OCc2ccnc(N3CCOCC3)n2)cc1)c1ccc(OC2CC(Nc3ccc4c(c3)C(=O)N(C3CCC(=O)NC3=O)C4=O)C2)cc1` (stereo not drawn) [Example 394] was 11 to 100 nM. Still for that read-out and setting: the value for `CN[C@@H]1CCCN(c2nccc(COc3ccc(C(C)(C)c4ccc(O[C@H]5C[C@@H](Nc6ccc7c(c6)C(=O)N(C6CCC(=O)NC6=O)C7=O)C5)cc4)cc3)n2)C1` (stereo partly drawn) [Example 401] was 11 to 100 nM.

Still in this experiment, the particulars now being: AR-v7 degradation in 22RV1 cells, 48 h, numeric values.
`CC(=O)c1nccc(COc2ccc(C(C)(C)c3ccc(OCCCCCNc4ccc5c(c4)C(=O)N(C4CCC(=O)NC4=O)C5=O)cc3)cc2)n1` (stereo not drawn) [Example 342, 5-((5-(4-(2-(4-((2-acetylpyrimidin-4-yl)methoxy)phenyl)isopropan-2-yl)phenoxy)pentyl)amino)-2-(2,6-dioxopiperidin-3-yl)isoindolin-1,3-dione] showed a 50% degradation concentration (DC50) greater than 10000 nM. On the same count and under the same terms, the figure for `CC(=O)c1cccc(COc2ccc(C(C)(C)c3ccc(OCCCCCCCCOCCCCNc4ccc5c(c4)C(=O)N(C4CCC(=O)NC4=O)C5=O)cc3)cc2)n1` (stereo not drawn) [Example 349, 5-((4-((8-(4-(2-(4-((6-acetylpyridin-2-yl)methoxy)phenyl)isopropan-2-yl)phenoxy)octyl)oxy)tert-butyl)amino)-2-(2,6-dioxopiperidin-3-yl)isoindolin-1,3-dione] is greater than 10000 nM.

As for `CN1CCC2(CCN(c3nccc(COc4ccc(C(C)(C)c5ccc(OCCCCCCCCOCCCCNc6ccc7c(c6)C(=O)N(C6CCC(=O)NC6=O)C7=O)cc5)cc4)n3)C2)C1` (stereo not drawn) [Example 384], the DC50 was greater than 5000 nM. On the same count and under the same terms, the value for `CC(=O)c1ncc(COc2ccc(C(C)(C)c3ccc(OCCCCCCCCOCCCCNc4ccc5c(c4)C(=O)N(C4CCC(=O)NC4=O)C5=O)cc3)cc2)cn1` (stereo not drawn) [Example 385, 5-((4-((8-(4-(2-(4-((2-acetylpyrimidin-5-yl)methoxy)phenyl)propan-2-yl)phenoxy)octyl)oxy)butyl)amino)-2-(2,6-dioxopiperidin-3-yl)isoindol-1,3-dione] was greater than 2000 nM.
